Data set [1] in a line: In vitro cytotoxicity testing (3T3 NRU test). The data set is classed as cell-based. The note with it: mouse. On the procedure:
The newly synthesized compounds were studied for cytotoxicity by standard method (3T3 NRU-test). The cells were incubated with the test substances at a concentration of 30 to 4000 μM for 24 h. The cytotoxicity expressed, in % relative to the negative control was determined.
The cytotoxicity testing was performed as described by Borenfreund et al. and the latest modification of the validated BALB/3T3 clone A31 Neutral Red Uptake Assay (3T3 NRU test) for cytotoxicity testing. BALB/3T3, clone A31 mouse embryo cells were grown as monolayer in 75 cm^2 tissue culture flasks in DMEM high-glucose (4.5 g/L), supplemented with 10% FBS and antibiotics (Sigma-Aldrich, Schnelldorf, Germany). Cultures were maintained at 37.5 °C in a humidified atmosphere under 5% CO2. Cells were plated at a density of 1 × 10^4 cells in 100 μL culture medium in each well of 96-well flat-bottomed microplates (Biologix, Lenexa, KS, USA) and allowed to adhere for 24 h. The test compounds, dissolved in DMSO and diluted in culture medium to concentration range 30 to 4000 μM were then added and the cell cultures were incubated for additional 24 h. […] After treatment with Neutral Red medium, washing and treatment with the Ethanol/Acetic acid solution (NR Desorb), the absorption was measured on a TECAN microplate reader (TECAN, Grödig, Austria) at wavelength 540 nm.

Another data set has as its system MCF-10A cells. The data set is classed as cell-based, human. The conditions noted are these: 72 h. On the procedure:
(§1) The compounds were studied for antiproliferative activity by standard MTT dye reduction assay. Cell cultures from different cell line types (MCF-10A, MCF-7 and MDA-MB-231) were incubated with the test substances at a concentration of 15 to 2000 μM for 72 h. The antiproliferative activity expressed in % relative to the negative control was determined. The obtained results are shown on Figure 2. MCF-10A is a reliable model for normal human mammary epithelial cells, which serves as a control in experiments to determine antitumor activity. The IC50 values, found in MCF-10A, are used to calculate a selective index (SI), which assesses the potential of a substance to be used as an antitumor agent. We used the following formula to calculate the selective index SI = IC50 of MCF-10A / IC50 of tumor cells. The highest selective index with respect to MCF-7 is shown by the substances: Si3 (SI = 8.35), Si11 (SI = 2.62) and Si1 (SI = 1.24).
(§2) The antiproliferative activity testing was performed on cell cultures from several human cell lines using the standard MTT-dye reduction assay, described by Mosmann. The assay is based on the metabolism of the tetrazolium salt MTT to insoluble formazan by mitochondrial reductases. The formazan concentration can be determined spectrophotometrically. The measured absorption is an indicator of cell viability and metabolic activity. Cell lines: mammary gland type A adenocarcinoma ER+, PR+, HER2- (MCF-7), triple-negative breast cancer ER-, PR-, HER2- (MDA-MB-231) and breast, non-tumorigenic epithelial cell line (MCF-10A) were used in experiments. The cell lines were routinely grown as monolayers in 75 cm^2 tissue culture flasks under standard conditions (described above). Cells were plated at a density of 1 × 10^3 cells in 100 µL in each well of 96-well flat-bottomed microplates and allowed to adhere for 24 h before treatment with test compounds. A concentration range from 15 to 2000 μM was applied for 72 h. The formazan absorption was registered using a microplate reader at λ = 540 nm. Antiproliferative activities were expressed as IC50 values (concentrations required for 50% inhibition of cell growth), calculated using non-linear regression analysis (GraphPad Software, San Diego, CA, USA).

Another data set relates to MCF-7 cells. The data set is classed as cell-based, human. The note with it: for selectivity with respect to the studied tumor cell lines (in words): MCF-7 and MDA-MB-231 versus MCF-10A. On the procedure:
as §1, §2

A further data set has as its system MDA-MB-231 cells. The data set is classed as cell-based, human. The note with it: 72 h. On the procedure: as §1, §2
For a further data set, the system named is Escherichia coli K12 407. The format is cell-based. The note with it: for antibacterial effect, zones free of microbial growth (in words): agar diffusion, E. coli K12 407. On the procedure: Antibacterial properties of the obtained new peptides and their conjugates were tested against E. coli K12 407 strain. Antibacterial activity of tested compounds was proven through appear of free zone around the loaded disk-paper by means of agar-diffusion method (Figure 3).
All newly synthesized derivatives of (KLAKLAK)2-NH2 at two concentrations 10 μM and 20 μM, were tested against facultative anaerobic gram-negative Esherichia coli NBIMCC K12 407. The strains were obtained from the culture collection of Bulgarian National Bank for Industrial Microorganisms and Cell Cultures (Sofia, Bulgaria) and were cultured in Luria-Bertani (LB) medium (Mumbai, India). The microbiological tests were performed using the agar diffusion method. The overnight pure cultures from tested strains were prepared in liquid LB-medium. A single colony was used for inoculating the liquid LB medium in order to maintain initial bacterial concentration of 1 × 10^7 cfu/mL. 100 µL of bacterial suspensions were seeded on agar plates with solid LB-medium. After 30 min, sterile paper disks 6 mm in diameter were soaked with tested samples in amount of 6 µL and placed on the agar petri dishes surface. The plates were incubated for 24 h at 37 °C. The appeared inhibition zones and their size were measured. The sterile paper disks soaked with water was used as blank. Mean values were calculated by performing the experiments in triplicates.

[2] abbreviates: MDA-MB-231, MTT, 15 to 2000 μM, read-out: IC50 of Mean ± SD, Antiproliferative Activity, MDA-MB-231.

Like-named read-outs stand apart in the source and are kept apart here. Non-standard residues stand in square brackets, D forms with d. Residues, ends and D or L forms follow the SMILES beside them. *: point of attachment. Acetyl(1,8-naphthalimido) = O=C1c2cccc3cccc(c23)C(=O)N1CC(=O)*; Caffeoyl = O=C(/C=C/c1ccc(O)c(O)c1)*; Nle = CCCC[C@H](N)C(=O)O; βAla = NCCC(=O)O

`CC(C)C[C@H](NC(=O)[C@H](CCCCN)NC(=O)CN1C(=O)c2cccc3cccc(c23)C1=O)C(=O)N[C@@H](C)C(=O)N[C@@H](CCCCN)C(=O)N[C@@H](CC(C)C)C(=O)N[C@@H](C)C(=O)N[C@@H](CCCCN)C(N)=O` [Si7, 1,8-naphthalimideG-KLAKLAK-NH2] ({Acetyl(1,8-naphthalimido)}-KLAKLAK-NH2) showed an IC50 at 24 h in data set [1] of 3420 ± 51.3 µM. Further, the IC50 in the data set on MCF-10A cells is 1140 ± 64.5 µM; with MCF-7 cells (72 h), 1200 ± 132 µM; in the data set with MDA-MB-231 cells, greater than 2000 µM. Moreover, the “selectivity with respect to the studied tumor cell lines (in words)” value (“selectivity” below) with MCF-7 cells is reported as “do not show selectivity”.
For the molecule `CCCC[C@H](NC(=O)[C@H](CCCCN)NC(=O)/C=C/c1ccc(O)c(O)c1)C(=O)N[C@@H](C)C(=O)N[C@@H](CCCCN)C(=O)N[C@@H](CCCC)C(=O)N[C@@H](C)C(=O)N[C@@H](CCCCN)C(N)=O` [Si15, Caf-KnLAKnLAK-NH2] (Caffeoyl-K[Nle]AK[Nle]AK-NH2), in data set [1], the IC50 at 24 h came out at 1514 ± 12.2 µM. In addition, the IC50 stood at 147 ± 7.96 µM with MCF-10A cells, 140 ± 7.12 µM in the data set with MCF-7 cells (72 h) and 346 ± 7.91 µM in the data set with MDA-MB-231 cells. Besides, the “selectivity” value in the data set with MCF-7 cells is on record as “No selectivity”.
As for `CC(C)C[C@H](NC(=O)[C@H](CCCCN)NC(=O)CCNC(=O)[C@H](CC(C)C)NC(=O)[C@H](CCCCN)NC(=O)CN1C(=O)c2cccc3cccc(c23)C1=O)C(=O)NCCC(=O)N[C@@H](CCCCN)C(N)=O` [Si2, 1,8-naphthalimideG-KLβAKLβAK-NH2] ({Acetyl(1,8-naphthalimido)}-KL[βAla]KL[βAla]K-NH2), in data set [1], the IC50 at 24 h came out at 1430 ± 48.4 µM. The IC50 with MCF-10A cells turned out to be 666 ± 20.9 µM; in the data set on MCF-7 cells (72 h), 663 ± 20 µM; in the data set on MDA-MB-231 cells, 840 ± 21.2 µM. For the same molecule, the “selectivity” value in the data set with MCF-7 cells was “no significant SI is observed”.
Take `CC(C)C[C@H](NC(=O)[C@H](CCCCN)NC(=O)[C@H](C)NC(=O)[C@H](CC(C)C)NC(=O)[C@H](CCCCN)NC(=O)[C@H](CCCCN)NC(=O)[C@H](C)NC(=O)[C@H](CC(C)C)NC(=O)[C@H](CCCCN)NC(=O)[C@H](C)NC(=O)[C@H](CC(C)C)NC(=O)[C@@H](N)CCCCN)C(=O)N[C@@H](C)C(=O)N[C@@H](CCCCN)C(N)=O` [Si1, (KLAKLAK)2-NH2]: in data set [1] (BALB/3T3 cells, NRU, 24 h, 30 to 4000 μM, read-out: IC50 of Mean ± SD, Cytotoxicity, BALB/3T3), the IC50 at 24 h worked out at 365 ± 4.08 µM. Besides, the IC50 with MCF-10A cells (MCF-10A, MTT, 15 to 2000 μM, read-out: IC50 of Mean ± SD, Antiproliferative Activity, MCF-10A) was determined as 154 ± 6.53 µM; in the data set with MCF-7 cells (MCF-7, MTT, 72 h, 15 to 2000 μM, read-out: IC50 of Mean ± SD, Antiproliferative Activity, MCF-7), 124 ± 8.12 µM; with MDA-MB-231 cells (setting [2]) it was 746 ± 7.6 µM. In addition, the “selective index (SI) with respect to MCF-7” value (shortened to “selective index (SI)”) in the data set with MCF-7 cells (SI = IC50 of MCF-10A / IC50 of MCF-7) amounted to 1.24. The “Average inhibition zones size” value in the data set on Escherichia coli K12 407 (20 μM, E. coli K12 407, 24 h at 37 °C, three replicates ± SD) is 5 ± 0.15 mm. In addition, the “antibacterial effect, zones free of microbial growth (in words)” value (from here on “antibacterial effect, zones free”) in the data set on Escherichia coli K12 407 is given as “clear zones free of microbial growth”.
In the case of `N.N.[Cl][Pt][Cl]` [Cisplatin, reference compound], the IC50 with MDA-MB-231 cells (setting [2]) worked out at 1.83 ± 0.13 µM.
As to `CCCC[C@H](NC(=O)[C@H](CCCCN)NC(=O)[C@H](C)NC(=O)[C@H](CCCC)NC(=O)[C@@H](N)CCCCN)C(=O)N[C@@H](C)C(=O)N[C@@H](CCCCN)C(N)=O` [Si13, KnLAKnLAK-NH2] (H-K[Nle]AK[Nle]AK-NH2; N-terminus assumed), the IC50 at 24 h in data set [1] is greater than 4000 µM. The figures for the IC50 in the data set with MCF-10A cells, in the data set on MCF-7 cells (72 h) and in the data set with MDA-MB-231 cells were greater than 2000 µM, 1700 ± 112 µM and greater than 2000 µM, respectively.
With `CC(C)C[C@H](NC(=O)[C@H](CCCCN)NC(=O)[C@H](C)NC(=O)[C@H](CC(C)C)NC(=O)[C@@H](N)CCCCN)C(=O)N[C@@H](C)C(=O)N[C@@H](CCCCN)C(N)=O` [Si6, KLAKLAK-NH2] (H-KLAKLAK-NH2; N-terminus assumed), the IC50 at 24 h in data set [1] is greater than 4000 µM. Also, the IC50 in the data set on MCF-10A cells, with MCF-7 cells (72 h) and with MDA-MB-231 cells was greater than 2000 µM in each case. Further, the “selectivity” value with MCF-7 cells is on record as “do not show selectivity”. In the data set with Escherichia coli K12 407 (20 μM), the “activity against Escherichia coli K12 407 (in words)” value is recorded as “moderate activity”. Besides, the “antibacterial effect, zones free” value in the data set on Escherichia coli K12 407 was “clear zones free of microbial growth”.
For the molecule `CCCC[C@H](NC(=O)[C@H](CCCCN)NC(=O)CN1C(=O)c2cccc3cccc(c23)C1=O)C(=O)N[C@@H](C)C(=O)N[C@@H](CCCCN)C(=O)N[C@@H](CCCC)C(=O)N[C@@H](C)C(=O)N[C@@H](CCCCN)C(N)=O` [Si14, 1,8-naphthalimideG-KnLAKnLAK-NH2] ({Acetyl(1,8-naphthalimido)}-K[Nle]AK[Nle]AK-NH2), the IC50 at 24 h in data set [1] was 2890 ± 61.4 µM. Further, the IC50 in the data set with MCF-10A cells was 631 ± 51.2 µM; with MCF-7 cells (72 h), 593 ± 60.3 µM; with MDA-MB-231 cells it was 1050 ± 49.8 µM. For the same molecule, in the data set on MCF-7 cells, the “selectivity” value was “No selectivity”. For the same molecule, the “activity against Escherichia coli K12 407 (in words)” value with Escherichia coli K12 407 (20 μM) is given as “moderate activity”. In addition, in the data set with Escherichia coli K12 407, the “antibacterial effect, zones free” value was “clear zones free of microbial growth”.
Consider `CC(C)C[C@H](NC(=O)[C@H](CCCCN)NC(=O)/C=C/c1ccc(O)c(O)c1)C(=O)NCCC(=O)N[C@@H](CCCCN)C(=O)N[C@@H](CC(C)C)C(=O)NCCC(=O)N[C@@H](CCCCN)C(N)=O` [Si11, Caf-KLβAKLβAK-NH2] (Caffeoyl-KL[βAla]KL[βAla]K-NH2), for which, in data set [1], the IC50 at 24 h amounted to 742 ± 18.5 µM. The IC50 in the data set with MCF-10A cells amounted to 597 ± 53 µM; with MCF-7 cells (72 h), 229 ± 7.18 µM; with MDA-MB-231 cells it was 1090 ± 70.7 µM. Further, the “selective index (SI)” value with MCF-7 cells (72 h) came out at 2.62. Further, the “selectivity” value with MCF-7 cells is on record as “significant selective index”.
As to `CC(C)C[C@H](NC(=O)[C@H](CCCCN)NC(=O)CCNC(=O)[C@H](CC(C)C)NC(=O)[C@@H](N)CCCCN)C(=O)NCCC(=O)N[C@@H](CCCCN)C(N)=O` [Si3, KLβAKLβAK-NH2] (H-KL[βAla]KL[βAla]K-NH2; N-terminus assumed), in data set [1], the IC50 at 24 h came out at 2870 ± 130 µM. For the same molecule, the IC50 with MCF-10A cells is 1470 ± 104 µM; in the data set with MCF-7 cells (72 h) it was 176 ± 4.66 µM; in the data set with MDA-MB-231 cells, greater than 2000 µM. The “selective index (SI)” value with MCF-7 cells (72 h) stood at 8.33. Besides, in the data set with MCF-7 cells, the “selectivity” value is recorded as “significant selective index”.
